Experiments:
LAG-3 [1] = target: T1, LAG-3 (Homo sapiens, UniProt P18627); test: Peptide binding to LAG-3-transfected cells by immunofluorescence microscopy; type: cell-based; set-up: GFP; host or cells: HEK-293T; settings: red fluorescent (TAMRA) peptide 25 µM; LAG-3-transfected Hek-293T cells compared to non-transfected control cells
T1 sequence (P18627 23-525): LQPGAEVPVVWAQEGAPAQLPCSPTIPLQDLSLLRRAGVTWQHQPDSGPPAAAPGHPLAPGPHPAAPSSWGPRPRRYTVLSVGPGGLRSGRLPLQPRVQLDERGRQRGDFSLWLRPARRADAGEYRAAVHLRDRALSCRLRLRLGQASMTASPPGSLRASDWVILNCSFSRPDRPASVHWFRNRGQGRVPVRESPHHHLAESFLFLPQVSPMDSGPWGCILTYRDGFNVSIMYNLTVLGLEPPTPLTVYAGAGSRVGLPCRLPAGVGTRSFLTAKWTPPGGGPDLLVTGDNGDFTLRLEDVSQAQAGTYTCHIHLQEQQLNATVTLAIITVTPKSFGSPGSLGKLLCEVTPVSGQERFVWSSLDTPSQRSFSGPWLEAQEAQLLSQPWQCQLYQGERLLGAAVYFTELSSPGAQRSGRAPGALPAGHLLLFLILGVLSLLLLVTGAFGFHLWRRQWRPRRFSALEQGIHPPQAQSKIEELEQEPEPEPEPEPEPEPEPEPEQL
Procedure: Hek-293T cells (1.25×10^5) were seeded in 4-well chamber slides, transfected with human LAG-3 plasmid, and […]. Non-transfected cells were used as a control group. The next day, cells were washed twice with phosphate buffer and reacted with 1% BSA at room temperature for 1 hour to reduce nonspecific binding of peptides. Afterwards, cells were reacted with TAMRA-conjugated peptide at a concentration of 25 µM at 4°C for 1 hour. After fixation, cells were washed, counterstained with DAPI, treated with an anti-fade reagent to preserve fluorescence, and analyzed using a confocal microscope (Nanoscope System).
(§1) To determine the degree of binding of the peptide to LAG-3, a peptide labeled with a red fluorescent reagent was synthesized and treated in Hek-293T cells transfected with LAG-3 followed by observation under an immunofluorescence microscope. Non-transfected cells were used as a control group. Meanwhile, Jurkat T cells stimulated with PMA, ionomycin, and CQ to increase expression of LAG-3 were treated with the peptide, and binding was observed using a flow cytometer. Unstimulated Jurakt T cells were used as a control group.

LAG-3 [2] = target: T1, LAG-3; test: Competitive binding with LAG-3 blocking antibody, immunofluorescence microscopy on LAG-3-transfected cells; type: cell-based; set-up: GFP; host or cells: HEK-293T; settings: LAG-3-transfected Hek-293T cells; LAG-3 blocking antibody 10 µg/ml first, then peptide 25 µM; compared to group without antibody
Procedure: Hek-293T cells (1.25×10^5) were seeded in 4-well chamber slides and transfected with human LAG-3 plasmid, and the next day, the cells were washed twice with phosphate buffer and reacted with 1% BSA at room temperature for 1 hour to reduce nonspecific binding. Afterwards, cells were blocked with human LAG-3 blocking antibody (10 µg/ml) at 4°C for 30 minutes, and then reacted with TAMRA-conjugated peptide at a concentration of 25 µM at 4°C for 1 hour. After fixation, cells were washed, counterstained with DAPI, treated with an anti-fade reagent to preserve fluorescence, and analyzed using a confocal microscope (Nanoscope System).

LAG-3 [3] = target: T1, LAG-3; test: Peptide binding to stimulated Jurkat T cells by flow cytometry; type: cell-based; settings: FITC-labeled peptide 10 µM; Jurkat T cells stimulated with PMA, ionomycin, CQ compared to unstimulated control cells
Procedure: For flow cytometry, Jurkat T cells (1×10^6) stimulated with PMA (50 ng/ml), ionomycin (1 µg/ml), and CQ (100 µM) were harvested and suspended in culture medium containing 1% BSA for blocking at room temperature for 1 hour. Afterwards, the cells were further reacted with fluorescein isothiocyanate-labeled LAG-3 binding peptide (10 µM) at 4°C for 1 hour. After washing several times, 300 µl of cell suspension suspended in phosphate buffer was applied to Attune NxT flow cytometry (Thermo Fisher Scientific).
as §1

LAG-3 [4] = target: T1, LAG-3; test: Competitive binding with LAG-3 blocking antibody, flow cytometry on stimulated Jurkat T cells; type: cell-based; settings: LAG-3 blocking antibody 10 µg/ml first, then peptide 10 µM, compared to untreated control group
Procedure: Similarly, for flow cytometry, Jurkat T cells (1×10^6) stimulated with PMA (50 ng/ml), ionomycin (1 µg/ml), and CQ (100 µM) were harvested and suspended in culture medium containing 1% BSA for 1 hour at room temperature to block nonspecific binding. Afterwards, cells were blocked with human LAG-3 blocking antibody (10 µg/ml) at 4°C for 30 minutes and then reacted with fluorescein isothiocyanate-conjugated peptide at a concentration of 10 µM at 4°C for 1 hour. After washing several times, 300 µl of cell suspension suspended in phosphate buffer was applied to Attune NxT flow cytometry (Thermo Fisher Scientific).

[5] = tested on: MC38 mouse colon cancer cells; test: In-vivo antitumor therapy, syngeneic MC38 mouse tumor model; set-up: species or system C57BL/6 mice; settings: compared to control group and phosphate buffer group; 10 mg/kg; peptide intravenously 6 times, antibody intraperitoneally 3 times
Procedure: 6-8-week-old C57BL/6 mice were purchased. Mice were bred and kept under the guidelines of the Institutional Animal Care and Use Committee (IACUC) of Kyungpook National University (2023-0184). Tumors were injected into the lower right flank of mice. For in-vivo antitumor treatment, mice were randomly selected and grouped when tumor size reached approximately 100-150 mm^3. Thereafter, the peptide was injected intravenously three times a week for two weeks at a dose of 10 mg/kg, and similarly the antibody was injected intraperitoneally three times at the same dose. Tumor size was measured using a digital caliper, and tumor volume was calculated using the formula (V = length × width^2 × 0.52) (where length (L) is the longest dimension, and width (W) is the shortest dimension, parallel to the mouse body). All mice were checked for ulcer severity after treatment, treatment was terminated when the tumor size reached approximately 3000 mm^3, and the mice were sacrificed.
To identify the anticancer effect in a syngeneic mouse tumor model, LAG-3 binding peptide was administered alone or in combination with PD-L1 antibody to mice in which tumors were induced using MC38 mouse colon cancer cells (FIG. 9a). […]

[6] = target: T2, cell lysate overexpressing LAG-3 (Homo sapiens, UniProt P18627); test: Pull-down with biotin-peptide and streptavidin beads, immunoblotting; cell lysate; type: binding; settings: cell lysate overexpressing LAG-3, biotin-labeled peptides; compared to the control group
T2 construct: GFP; host or cells: HEK-293T
T2 sequence (P18627 23-525): T1 sequence (P18627 23-525)
Procedure: (§2) The binding specificity of the LAG-3 binding peptide was measured by pull-down analysis. After pull-down with LAG-3 binding peptide using human recombinant LAG-3 protein, it was applied to immunoblotting using LAG-3 antibody. In the same manner, cell lysates with LAG-3 overexpressed were […] using human LAG-3 plasmid DNA and then subjected to immunoblotting using LAG-3 antibodies.

Jurkat T cells = test: T-cell activation assay (IL-2 ELISA); type: cell-based, human; settings: stimulated Jurkat T cells under co-culture of HepG2 cells, HepG2 cell culture medium, or recombinant FGL-1 (10 µg/ml); peptide 50 µM, antibody 10 µg/ml; 24 hours
Procedure: Jurkat T cells (1×10^6) were inoculated into a T25 flask and stimulated for 24 hours using PMA (50 ng/ml), ionomycin (1 µg/ml), and CQ (100 µM). HepG2 cells (5×10^3) were inoculated in a 96-well plate to induce secretion of FGL-1 for 48 hours. To co-culture the two types of cells, stimulated Jurkat T cells (2.5×10^4) were mixed with HepG2 at a ratio of 1:5. Similarly, for indirect co-culture, stimulated Jurkat T cells (2.5×10^4) were mixed with HepG2 cell culture medium. Finally, to observe the direct effect, stimulated Jurkat T cells (2.5×10^4) were treated with recombinant FGL-1 (10 µg/ml) protein. […] Afterwards, culture was carried out for an additional 24 hours for reaction. Control peptides were also used for comparison. After each culture time, the supernatant was harvested, and IL-2 secretion was measured using an ELISA kit for measuring human IL-2.
Investigation was made on whether the interaction between FGL-1 secreted from HepG2 hepatoma cells and LAG-3 of T cells inhibits T cell activity and, if so, whether it is blocked by a LAG-3 binding peptide. For this purpose, in the first experiment, Jurkat T cells were cultured with stimulation for 24 hours using PMA, ionomycin, and CQ. HepG2 cells were cultured in 96-well plates for 48 hours for FGL-1 secretion. […]

LAG-3 [7] = target: T1, LAG-3; test: Phage binding ELISA on LAG-3-transfected or non-transfected cells; type: cell-based; set-up: GFP; host or cells: HEK-293T; settings: phage clone 3 among 13 selected phage clones; transfected or non-transfected Hek-293T cells; OD 450 nm
Procedure: Hek-293T cells (2.5×10^4) were seeded in a 96-well plate and transfected with LAG-3 plasmid. Culture was performed for 48 hours. Non-transfected Hek-293T cells were used as a control group. Plates were blocked with 10 mg/ml BSA for 1 hour at room temperature. After washing the wells six times with Tris-buffered saline-Tween 20 (0.1%), 100 µl of phage clones (1×10^9 pfu/well) were added and reacted at 4°C for 1 hour. After washing, horse-radish peroxidase (HRP)-conjugated T7 tail fiber antibody (diluted 1:10,000 in blocking buffer) was added and reacted at room temperature for 1 hour. After washing the plate six more times, a substrate consisting of 3,3',5,5'-tetramethylbenzidine was added and reacted at room temperature for 10-15 minutes. The reaction was finally stopped by adding 100 µl of 2 M H2SO4 (stop solution), and the plates were analyzed at 450 nm with a microplate reader.

[8] = target: T3, recombinant LAG-3 protein (Homo sapiens, UniProt P18627); test: Pull-down with biotin-peptide and streptavidin beads, immunoblotting; recombinant protein; type: binding; settings: biotin-labeled peptides, compared to the control group
T3 construct: purchased Acro Biosystems
T3 sequence (P18627 23-450 limits assumed): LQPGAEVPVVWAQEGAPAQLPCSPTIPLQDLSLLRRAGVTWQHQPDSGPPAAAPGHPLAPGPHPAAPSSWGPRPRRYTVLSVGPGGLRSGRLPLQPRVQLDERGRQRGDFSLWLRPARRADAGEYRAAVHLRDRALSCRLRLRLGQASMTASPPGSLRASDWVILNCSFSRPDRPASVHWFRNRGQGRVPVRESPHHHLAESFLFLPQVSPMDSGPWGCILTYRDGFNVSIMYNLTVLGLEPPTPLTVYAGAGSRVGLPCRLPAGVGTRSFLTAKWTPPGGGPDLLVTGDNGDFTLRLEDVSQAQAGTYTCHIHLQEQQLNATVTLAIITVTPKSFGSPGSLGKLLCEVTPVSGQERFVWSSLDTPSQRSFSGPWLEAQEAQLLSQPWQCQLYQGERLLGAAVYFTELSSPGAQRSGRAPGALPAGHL
Procedure: as §2

Structure (SMILES) | binding of peptide to LAG-3 expressing cells (LAG-3 [1]) | binding strength of peptide after LAG-3 blocking antibody (LAG-3 [2]) | binding of peptide to stimulated Jurkat T cells (LAG-3 [3]) | binding of peptide after LAG-3 blocking antibody (LAG-3 [4]) | cancer growth, single administration [5] | detection of LAG-3 proteins after pull-down [6] | IL-2 secretion (Jurkat T cells) | cell binding by phage binding ELISA (LAG-3 [7]) | detection of LAG-3 protein after pull-down [8]
CC[C@H](C)[C@@H]1NC(=O)[C@@H](N)CSSC[C@@H](C(=O)O)NC(=O)[C@H](C(C)C)NC(=O)[C@H](C)NC(=O)[C@@H]2CCCN2C(=O)[C@H](CC(=O)O)NC(=O)[C@H](CC(N)=O)NC(=O)[C@H](CCCNC(=N)N)NC1=O [LAG3Pep-1] | bind more strongly | reduced | more LAG-3Pep-1 and LAG-3Pep-2 peptides were bound | reduced | – | – | – | – | –
CC(C)C[C@H](NC(=O)[C@@H](NC(=O)[C@H](CO)NC(=O)[C@@H](N)CS)C(C)C)C(=O)N[C@@H](CC(N)=O)C(=O)N[C@@H](C)C(=O)N[C@@H](CO)C(=O)NCC(=O)N[C@@H](CS)C(=O)O [LAG3Pep-2] | bind more strongly | reduced | more LAG-3Pep-1 and LAG-3Pep-2 peptides were bound | reduced | partially inhibited | more LAG-3 proteins were detected | significantly increased | highest level of binding | more detection of LAG-3 protein
